In patent US8466129B2, “Method of preventing and treating airway remodeling and pulmonary inflammation using A2B adenosine receptor antagonists” (Gilead Sciences, Inc., priority 2004, dated 2013):
Entries after “also recorded” stand apart in the source; their conditions may differ.

Assays:
[1] = system: ADA-deficient (ADA−/−) mice; assay: General health and lung histology (H&E) in the ADA-deficient mouse model of adenosine-dependent pulmonary injury; format: in vivo; conditions: 1 mg/kg ip twice daily for 17 days
Excerpt: The model system being used is the adenosine deaminase (ADA)-deficient mouse model of adenosine-dependent pulmonary injury. In this model, elevations in adenosine are associated with increased pulmonary inflammation and airway remodeling. Many of the features seen in these mice resemble those observed in patients with various forms of chronic lung disease including severe asthma, COPD and pulmonary fibrosis. The approach is to treat these mice with the A2B AR antagonist 3-ethyl-1-propyl-8-{1-[(3-trifluoromethylphenyl)methyl]pyrazol -4-yl}-1,3,7-trihydropurine-2,6-dione as a means to probe A2BAR contributions to pulmonary inflammation and injury in ADA-deficient mice, which should provide insight into the efficacy of this drug for the treatment of chronic lung diseases.
(§1) Mice treated by intraperitoneal (ip) injection twice daily with 1 mg/kg 3-ethyl-1-propyl -8-{1-[(3-trifluoromethylphenyl)methyl]pyrazol-4-yl}1,3,7-trihydropurine-2,6-dione. The specific protocol is as follows: ADA-deficient (ADA−/−) or ADA containing (ADA+) mice were identified at birth by screening of ADA enzymatic activity in the blood. ADA−/− mice were maintained on ADA enzyme therapy from postnatal day 2 until postnatal day 21. At this stage, treatments with 3-ethyl-1-propyl-8-{1-[(3-trifluoromethylphenyl)methyl] pyrazol -4-yl}-1,3,7-trihydropurine-2,6-dione or vehicle controls (corn oil/ethanol/DMSO) were initiated. Treatments consisted of an ip injection in the morning (8-9 AM) and in the evening (5-6 pm). Treatments were given daily for 17 days, and the experiment was terminated on postnatal day 38. Treatment groups included ADA−/− or ADA+mice receiving 3-ethyl-1-propyl-8-{1-[(3-trifluoromethylphenyl)methyl]pyrazol-4-yl}-1,3,7-trihydropurine-2,6-dione, vehicle, or no treatment. All mice were littermates and were therefore strain matched. Both males and females were included in these experiments. At the termination of the experiment, serum was collected for pharmacokinetics (PK) analysis of 3-ethyl-1-propyl -8-{1-[(3-trifluoromethylphenyl)methyl]pyrazol-4-yl}-1,3,7-trihydropurine -2,6-dione levels and various pulmonary endpoints were examined.
ADA-deficient mice were generated and genotyped as described (Blackburn et al. (1998) J Biol Chem 273:5093-5100 and Young et al. (2004) J. Immunol. 173:1380-1389. Mice homozygous for the null Ada allele were designated ADA-deficient (ADA^−/−), while mice heterozygous for the null Ada allele were designated as ADA control mice (ADA^+). All mice were on a mixed 129sv/C57BL/6J background and all phenotypic comparisons were performed amongst littermates. Animal care was in accordance with institutional and NIH guidelines. Mice were housed in ventilated cages equipped with microisolator lids and maintained under strict containment protocols. No evidence of bacterial, parasitic, or fungal infection was found, and serologies on cage littermates were negative for 12 of the most common murine viruses.
(§2) Mice were anesthetized with avertin, and lungs were lavaged four times with 0.3 ml PBS, and 0.95-1 ml of pooled lavage fluid was recovered. Total cell counts were determined using a hemocytometer, and aliquots were cytospun onto microscope slides and stained with Diff-Quick (Dade Nehring) for cellular differentials. Lungs were then infused with 4% paraformaldehyde in PBS at 25 cm of pressure and then fixed overnight at 4° C. Fixed lung samples were rinsed in PBS, dehydrated, and embedded in paraffin. Sections (5 μm) were collected on microscope slides and stained with hematoxylin and eosin (H&E; Shandon-Lipshaw) or Masson's trichrome (EM Science), according to manufacturer's instructions.

[2] = system: ADA-deficient (ADA−/−) mice; assay: Bronchiolalveolar lavage (BAL) cell counts and cellular differentials in ADA-deficient mice; format: in vivo, mouse; conditions: 1 mg/kg ip twice daily for 17 days
Method: as §1, §2

[3] = system: ADA-deficient (ADA−/−) mice; assay: Whole lung transcript levels by quantitative real-time RT-PCR in ADA-deficient mice; format: in vivo, mouse; conditions: 1 mg/kg ip twice daily for 17 days, vs vehicle-treated ADA−/− mice
Method: as §1
Mice were anesthetized and the lungs were rapidly removed and frozen in liquid nitrogen. RNA was isolated from frozen lung tissue using TRIzol Reagent (Life Technologies Inc., Grand Island, N.Y., USA). RNA samples were then DNase treated and subjected to quantitative real-time RT-PCR. The primers, probes and procedures for real-time RT-PCR were described previously in Sun et al. (2005) J Clin Invest 115:35-43. Reactions were carried out on a Smart Cycler rapid thermal cycler system (Cepheid, Sunnyvale, Calif.). Specific transcript levels were determined using Smart Cycler analysis software through comparison to a standard curve generated from the PCR amplification of template dilutions.

[4] = system: ADA-deficient (ADA−/−) mice; assay: Collagen deposition (Masson's trichrome) and soluble collagen (Sircol assay) in ADA-deficient mice; format: in vivo, mouse; conditions: 1 mg/kg ip twice daily for 17 days
Method: as §1
as §2, with “instructions. […]” for “instructions.”

[5] = system: ADA-deficient (ADA−/−) mice; assay: α-smooth muscle actin immunostaining of lung myofibroblasts in ADA-deficient mice; format: in vivo, mouse; conditions: 1 mg/kg ip twice daily for 17 days
Method: as §1, with “examined. […]” for “examined.”

[6] = system: ADA-deficient (ADA−/−) mice; assay: Alveolar airspace size (histology, mean chord length) in ADA-deficient mice; format: in vivo, mouse; conditions: 1 mg/kg ip twice daily for 17 days
Method: Mice treated by intraperitoneal (ip) injection twice daily with 1 mg/kg 3-ethyl-1-propyl -8-{1-[(3-trifluoromethylphenyl)methyl]pyrazol-4-yl}1,3,7-trihydropurine-2,6-dione. The specific protocol is as follows: ADA-deficient (ADA−/−) or ADA containing (ADA+) mice were identified at birth by screening of ADA enzymatic activity in the blood. ADA−/− mice were maintained on ADA enzyme therapy from postnatal day 2 until postnatal day 21. At this stage, treatments with 3-ethyl-1-propyl-8-{1-[(3-trifluoromethylphenyl)methyl] pyrazol -4-yl}-1,3,7-trihydropurine-2,6-dione or vehicle controls (corn oil/ethanol/DMSO) were initiated. […]
Mice were anesthetized with avertin, and lungs were lavaged four times with 0.3 ml PBS, and 0.95-1 ml of pooled lavage fluid was recovered. Total cell counts were determined using a hemocytometer, and aliquots were cytospun onto microscope slides and stained with Diff-Quick (Dade Nehring) for cellular differentials. […]
The size of alveolar airways was determined in pressure infused lungs by measuring mean chord lengths on H&E-stained lung sections (Blackburn et al. (2000) J Exp Med 192:159-170). […] This line grid was subtracted from the lung images using Image-Pro® Plus (Media Cybernetics) image analysis software, and the resultant lines were measured and averaged to give the mean chord length of the alveolar airways. […]

[7] = ADA−/− mice, vs vehicle-treated ADA−/− mice
[8] = listed as adenosine A2B receptor antagonist, 1 mg/kg

## CCCn1c(=O)c2[nH]c(-c3cnn(Cc4cccc(C(F)(F)F)c4)c3)nc2n(CC)c1=O [3-ethyl-1-propyl-8-(1-{[3-(trifluoromethyl)phenyl]methyl}pyrazol-4-yl)-1,3,7-trihydropurine-2,6-dione]
[1]; ADA+ control mice
  alveolar airway simplification (H&E histology): not evident
  pulmonary inflammation (H&E histology): not evident
[1]; ADA−/− mice
  pulmonary inflammation and airway destruction: significant reduction
[1]; [7]
  alveolar airway simplification (H&E histology): significant decrease
  pulmonary inflammation (H&E histology): significant decrease
[1]; ADA−/− mice, seen in vehicle-treated or untreated ADA−/− mice
  outward signs of severe respiratory distress (rapid breathing and hunched posture): not observed
[2]
  airway inflammation: significant decrease
  alveolar macrophage activation (BAL cells): reduction
  alveolar macrophages in BAL: reduction
  eosinophils in BAL: reduction
  lymphocytes in BAL: reduction
  neutrophils in BAL: reduction
[2]; vs vehicle-treated ADA−/− mice
  number of total cells recovered from BAL: significant reduction
[3]
  Eotaxin I level, whole lung RNA: significantly lower
  IL-4 level, whole lung RNA: did not change
  IL-5 level, whole lung RNA: did not change
  IL-6 level, whole lung RNA: significantly lower
  MMP-9 expression, whole lung RNA: diminished
  MMP-12 expression, whole lung RNA: diminished
  RANTES level, whole lung RNA: did not change
  TARC level, whole lung RNA: significantly lower
  TIMP-1 expression, whole lung RNA: diminished
  TNFα level, whole lung RNA: did not change
  increase in collagen production: whole lung α1-procollagen transcript levels: largely prevented
  monocyte chemoattractant proteins (MCPs) level, whole lung RNA: did not change
[3]; [8]
  TGF-β1 expression (transcripts), whole lung: lower levels; also recorded: decreased
  osteopontin (OPN) expression (transcripts), whole lung: lower levels; also recorded: decreased
  plasminogen activator inhibitor-1 (PAI-1) expression (transcripts), whole lung: lower levels; also recorded: decreased
[4]; ADA+ control mice
  collagen deposition in the lungs (Masson's trichrome): little to no
[4]; ADA−/− mice
  collagen deposition in the airways (Masson's trichrome): reduction
[4]; [7]
  increase in collagen production: collagen protein levels in BAL fluid: largely prevented
[5]
  α-sma positive cells in the distal airways (myofibroblast accumulation): Few to no
[6]
  distal airway enlargement (histology): prevented
  distal airway size (mean cord length): agreed with the histological observations
